Data reported in patent US20180207190A1, “COMPOSITION CONTAINING NAD FOR PREVENTING AND TREATING OBESITY OR IMPAIRED GLUCOSE TOLERANCE” (UNIVERSITY OF ULSAN FOUNDATION FOR INDUSTRY COOPERATION, priority 2015, published 2018).
Entries after “also recorded” stand apart in the source; their conditions may differ.

Key:
[1] = NR supplementation; cited from earlier work
C57BL/6 mice [2] = assay: Feeding study, single intravascular (ICV, third ventricle cannula) administration: food intake and body weight; assay type: in vivo, mouse
Experimental: (§1) Mature male C57BL/6 mice were purchased from ORIENT BIO Inc. (Gyeonggi-do, Republic of Korea). Unless stated otherwise, the mice were freely fed a standard diet (Cargill Agri Purina, Inc., Seoul, Republic of Korea). To establish a diet-induced obesity (DIO) model, the mice were fed a HFD (60% fats, Research Diet Co., New Brunswick, N.J.) for 20 weeks. The animals were raised at a controlled temperature (22±1° C.) under a 12-hour light/dark cycle (a light condition from 08:00 a.m. to 8:00 p.m.) For experiments of single administration of NAD+ and NMN, 8-week-old mice were fasted overnight, and NAD+(purchased from Sigma, administered at 0.3, 1 and 3 mg/kg) or NMN (purchased from Sigma, administered at 30, 100, and 300 mg/kg) was intraperitoneally administered to the mice between 09:00 a.m. and 10:00 a.m. For ? chronic NAD+ treatment, NAD+(0.3 mg/kg body weight/day) was intraperitoneally injected once to the mice immediately before the lights went off for 4 weeks.
Permanent 26-gauge stainless steel cannulae were surgically inserted into the third ventricles of mice (a cannula insertion position: 1.8 mm posterior to bregma and 5.0 mm below the sagittal sinus). For surgery, the mice were anesthetized with a mixture of Zoletil and Rumpun (2:1 v/v, 10 μL/g body weight). The exact cannulation positions of the cannulae were confirmed through a positive dipsogenic response after angiotensin II (50 ng) was administered. Only the mice in which the cannulae were precisely positioned were used for data analyses. After a recovery period of 7 days after the surgery, the mice were daily touched for a predetermined time over a week to minimize a stress response to the experiments. Immediately before administration, NAD+ and NMN were dissolved in 0.9% saline and used. The NAD+ and NMN were dissolved in 2 μL of saline for intravascular administration.
(§2) A predetermined dose of NAD+ or NMN was administered to C57BL/6 mice, which were fasted overnight, during an early light phase (09:00 to 11:00) by using a given method. The same amount of a vehicle (i.e., physiological saline) was administered to the control mice.

[3] = tested on: diabetic mice fed a high-fat diet; conditions: cited from earlier work
C57BL/6 mice [4] = assay: Feeding study, single intraperitoneal administration: food intake; assay type: in vivo, mouse
Experimental: as §1, §2

NQO1 = NQO1 (Homo sapiens, UniProt P15559); conditions: cited from earlier work
NQO1, sequence (P15559 whole entry, species assumed): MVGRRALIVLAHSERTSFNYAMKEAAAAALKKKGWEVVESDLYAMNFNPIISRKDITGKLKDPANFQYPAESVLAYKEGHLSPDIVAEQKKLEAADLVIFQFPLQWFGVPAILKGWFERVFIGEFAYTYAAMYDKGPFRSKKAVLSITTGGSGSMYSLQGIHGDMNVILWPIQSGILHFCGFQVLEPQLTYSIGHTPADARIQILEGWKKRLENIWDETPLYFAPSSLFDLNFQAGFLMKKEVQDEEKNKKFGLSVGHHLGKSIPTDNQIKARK

rodents = conditions: exogenous NAD+ administration; cited from earlier work
HFD-fed obese mice [5] = assay: Chronic IP injection for 4 weeks: body weight and side effects in ND-fed and HFD-fed (diet-induced obesity) mice; assay type: in vivo, mouse; conditions: for body weight vs saline-injected group: NAD+ 0.3 mg/kg/day IP once a day for 4 weeks, 0.3 mg/kg/day
Experimental: as §1
Additionally, an effect of chronic IP injection of NAD+ on the body weight was also examined (FIG. 4). The mice were divided into four groups (a group of ND-fed mice to which saline was IP injected, a group of ND-fed mice to which NAD+ was IP injected, a group of HFD-fed mice to which saline was IP injected, and a group of HFD-fed mice to which NAD+ was IP injected), and NAD+ was intraperitoneally administered to the mice at a dose of 0.3 mg/kg/day once a day for 4 weeks.

[6] = tested on: cultured neuronal cells, astrocytes, and cardiac myocytes; conditions: cells treated with NAD+; cited from earlier work
HFD-fed obese mice [7] = assay: Circadian rhythm of feed intake and physical activity (CLAMS) after chronic IP injection; assay type: in vivo, mouse; conditions: NAD+ 0.3 mg/kg/day IP 4 weeks, CLAMS 24 hours
Experimental: as §1
The feed intake and physical activity of mice were measured using a comprehensive laboratory animal monitoring system (CLAMS, Columbus Instruments) (n=4 to 5). The light and feeding conditions were maintained under the same conditions as in a home cage. Water was freely provided during an observation period.
Further, an effect of chronic IP injection of NAD+ on the feed intake was verified as follows. To examine a chronic effect of the NAD+ intraperitoneal injection on the feed intake, NAD+(0.3 mg/kg) or saline was administered to the following three groups of mice once a day for 4 weeks: an IP saline-injected group of mice fed the ND, an IP saline-injected group of mice fed the HFD, and an IP NAD+-injected group of mice fed the HFD.
To test an effect of habitual IP injection of NAD+(0.3 mg/kg/day) on mobility in an obese animal model, the mice were divided into three groups, that is, an IP saline-injected group of mice fed the ND, an IP saline-injected group of mice fed the HFD, and an IP NAD+-injected group of mice fed the HFD and the mobility thereof was evaluated.

C57BL/6 mice [8] = assay: Oral glucose tolerance test; assay type: in vivo, mouse; conditions: NAD+ 0.3, 1, 3 mg/kg single IP 30 minutes before oral glucose 2 g/kg, overnight-fasted normal mice
Experimental: For an oral glucose tolerance test, the mice were fasted overnight, 2 g/kg (body weight) of glucose was orally administered (by oral gavage), and blood glucose levels were measured immediately before oral administration (0 minute) and 15, 30, 60, and 120 minutes after the oral administration. 30 minutes prior to glucose administration, NAD+(0.3, 1 and 3 mg/kg) was intraperitoneally administered.
To examine an effect of single IP injection of NAD+ on the glucose tolerance, an oral glucose tolerance test was performed on ND-fed C57BL/6 mice that were fasted overnight. A single IP dose of NAD+(0.3, 1 and 3 mg/kg) was administered to the mice, and glucose (2 g/kg) was orally administered thereto after 30 minutes. Thereafter, blood glucose levels were measured at 15, 30, 60, and 120 minutes.

NC(=O)c1ccc[n+]([C@@H]2O[C@H](CO)[C@@H](O)[C@H]2O)c1 [NR, nicotinamide riboside]
NAD+ level in peripheral tissues such as liver and skeletal muscles [1]: increases | NAD+ level in the brain [1]: does not increase

NC(=O)c1ccc[n+]([C@@H]2O[C@H](COP(=O)([O-])O)[C@@H](O)[C@H]2O)c1 [NMN, nicotinamide mononucleotide, reference compound]
food intake vs saline (C57BL/6 mice [2]; NMN 10 pmol single ICV, 24 hours after injection): reduced; also recorded: much lower level of food intake | change in body weight for 24 hours vs control (C57BL/6 mice [2]; NMN 10, 100, 1,000 pmol single ICV): no significant difference; also recorded: did not cause a change in body weight | NAD+ level in the liver, adipose tissues, and skeletal muscles ([3]; IP NMN, HFD-fed diabetic mice): successfully increases | glucose tolerance ([3]; NMN, diabetic mice): restores damaged glucose tolerance | food intake at 4 hours vs saline (C57BL/6 mice [4]; NMN 300 mg/kg single IP): significantly reduced level of food intake | food intake at 24 hours vs control (C57BL/6 mice [4]; NMN 30, 100, 300 mg/kg single IP): did not have a reduced food intake; also recorded: not maintained; also recorded: no decrease in food intake

CC1(C)CCC2=C(O1)c1ccccc1C(=O)C2=O [βL]
NAD+, NAD+/NADH, and NADP+/NADPH ratios (NQO1): increase

NC(=O)c1ccc[n+]([C@@H]2O[C@H](COP(=O)([O-])OP(=O)(O)OC[C@H]3O[C@@H](n4cnc5c(N)ncnc54)[C@H](O)[C@@H]3O)[C@@H](O)[C@H]2O)c1 [NAD+, nicotinamide adenine dinucleotide]
weight gain / body weight for 24 hours vs saline (C57BL/6 mice [2]; NAD+ 0.2 pmol single intracerebroventricular (ICV)): significantly suppressed; also recorded: reduced the body weight; also recorded: significantly reduced level of weight gain | food intake vs saline (C57BL/6 mice [2]; NAD+ 0.2, 1, 2 pmol single intracerebroventricular (ICV), overnight-fasted mice, observed for 24 hours, effect maintained at 24 hours): significantly reduced; also recorded: reduced food intake | time at which decrease in food intake started after administration (C57BL/6 mice [2]; NAD+ single intracerebroventricular (ICV)): 2 h | ischemic brain damage and cardiomegaly (rodents): improves | body weight vs saline-injected group (HFD-fed obese mice [5]; HFD-fed obese mice): significantly reduced; also recorded: significant effect; also recorded: significant decrease | side effects of chronic injection (HFD-fed obese mice [5]; NAD+ 0.3 mg/kg/day IP, 4 weeks): did not cause any notable side effects | body weight vs saline-injected group (HFD-fed obese mice [5]; ND-fed normal mice): did not induce a weight loss; also recorded: not significantly different | apoptosis induced by oxidative stress [6]: reduced | daytime feed intake (HFD-fed obese mice [7]): significantly reduced | nighttime feed intake (HFD-fed obese mice [7]): did not significantly reduce | food intake frequency (HFD-fed obese mice [7]; 0.3 mg/kg/day): suppressed a high food intake frequency of the obese mice to a normal mouse level; also recorded: significantly reduced | nighttime physical activity (mobility) (HFD-fed obese mice [7]; 0.3 mg/kg/day): remarkably restored | food intake at 4 hours vs saline (C57BL/6 mice [4]; NAD+ 1 mg/kg single IP): significantly reduced | food intake at 4 hours vs saline (C57BL/6 mice [4]; NAD+ 0.3, 1, 3 mg/kg single IP, overnight-fasted mice): significantly reduced | blood glucose level at 15 and 30 minutes after glucose administration vs saline (C57BL/6 mice [8]): significantly reduced; also recorded: much lower blood glucose level
